Measured values as given in ChEMBL document CHEMBL1201862, “PubChem BioAssay data set” (2004).
Active and inactive are the calls of the source.

How the values were obtained:
Estrogen receptor beta [1] = target: T1, Estrogen receptor beta (Homo sapiens, UniProt Q92731); test: blockers of SRC-3 recruitment to ERβ – biochemical, ELISA, streptavidin-HRP readout, orthogonal assay, confirmation (AID 1060)
Estrogen receptor beta [2] = target: T1, Estrogen receptor beta
[3] = target: T2, Carboxy-terminal domain RNA polymerase II polypeptide A small phosphatase 1 (Homo sapiens, UniProt Q9GZU7); test: CTDSP1 inhibitors, concentration-response, biochemical, absorbance readout, ultra-high-throughput screen actives (AID 540297); assay type: functional
T2 sequence (Q9GZU7 whole entry): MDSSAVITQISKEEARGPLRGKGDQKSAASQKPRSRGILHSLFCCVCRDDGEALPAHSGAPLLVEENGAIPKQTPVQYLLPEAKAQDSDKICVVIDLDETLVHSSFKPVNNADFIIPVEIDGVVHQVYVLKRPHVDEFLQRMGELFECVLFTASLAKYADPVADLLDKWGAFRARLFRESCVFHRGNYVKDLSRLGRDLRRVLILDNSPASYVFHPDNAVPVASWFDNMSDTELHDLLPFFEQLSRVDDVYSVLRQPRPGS

[4] = target: E3 ubiquitin-protein ligase UHRF1 (Homo sapiens, UniProt Q96T88); test: Counterscreen for inhibitors of 5-meCpG-binding domain protein 2 (MBD2): TRFRET-based biochemical high throughput dose response assay to identify inhibitors of binding of ubiquitin-like with PHD and ring finger domains 1 (UHRF1) to methylated oligonucleotide.
E3 ubiquitin-protein ligase UHRF1, sequence (Q96T88 whole entry, the tested form may be a part): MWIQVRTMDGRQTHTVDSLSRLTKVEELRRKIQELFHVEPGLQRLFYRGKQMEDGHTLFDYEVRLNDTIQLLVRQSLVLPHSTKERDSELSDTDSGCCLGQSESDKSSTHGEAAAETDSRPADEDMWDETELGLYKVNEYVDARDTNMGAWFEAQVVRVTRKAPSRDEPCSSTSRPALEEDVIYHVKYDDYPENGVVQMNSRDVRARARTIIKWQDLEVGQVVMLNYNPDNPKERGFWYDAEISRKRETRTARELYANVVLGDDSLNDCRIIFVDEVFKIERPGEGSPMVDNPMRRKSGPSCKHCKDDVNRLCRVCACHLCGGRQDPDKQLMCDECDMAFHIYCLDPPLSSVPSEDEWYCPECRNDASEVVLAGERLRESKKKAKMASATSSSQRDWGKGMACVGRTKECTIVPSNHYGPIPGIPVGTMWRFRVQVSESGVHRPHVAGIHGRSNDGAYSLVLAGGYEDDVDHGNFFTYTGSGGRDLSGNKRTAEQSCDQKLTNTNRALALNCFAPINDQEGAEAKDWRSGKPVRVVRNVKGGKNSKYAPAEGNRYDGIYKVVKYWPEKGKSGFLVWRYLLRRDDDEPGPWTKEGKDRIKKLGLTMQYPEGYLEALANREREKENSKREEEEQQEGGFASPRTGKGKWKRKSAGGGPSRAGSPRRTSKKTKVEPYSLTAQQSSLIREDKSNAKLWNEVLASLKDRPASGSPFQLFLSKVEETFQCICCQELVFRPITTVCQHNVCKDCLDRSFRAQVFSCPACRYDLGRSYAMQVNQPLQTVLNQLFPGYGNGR

Prothrombin = Prothrombin (Homo sapiens, UniProt P00734); test: Thrombin 1536 HTS Dose Response Confirmation. [Related pubchem assays: 1046 (Thrombin 1536 HTS; hits were confirmed in this assay)]; assay type: functional
Genome polyprotein = Genome polyprotein (dengue virus type 2, UniProt P29990); test: flavivirus cap methylation enzyme inhibition – biochemical, confirmation dose response, primary screen (AID 588689); assay type: functional
Coagulation factor XII = target: T3, Coagulation factor XII (Homo sapiens, UniProt P00748); assay type: functional;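 further: activated factor XIIa alpha cleaving a fluorogenic AMC peptide substrate; inhibitor potency from loss of enzyme activity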
T3 sequence (P00748 whole entry): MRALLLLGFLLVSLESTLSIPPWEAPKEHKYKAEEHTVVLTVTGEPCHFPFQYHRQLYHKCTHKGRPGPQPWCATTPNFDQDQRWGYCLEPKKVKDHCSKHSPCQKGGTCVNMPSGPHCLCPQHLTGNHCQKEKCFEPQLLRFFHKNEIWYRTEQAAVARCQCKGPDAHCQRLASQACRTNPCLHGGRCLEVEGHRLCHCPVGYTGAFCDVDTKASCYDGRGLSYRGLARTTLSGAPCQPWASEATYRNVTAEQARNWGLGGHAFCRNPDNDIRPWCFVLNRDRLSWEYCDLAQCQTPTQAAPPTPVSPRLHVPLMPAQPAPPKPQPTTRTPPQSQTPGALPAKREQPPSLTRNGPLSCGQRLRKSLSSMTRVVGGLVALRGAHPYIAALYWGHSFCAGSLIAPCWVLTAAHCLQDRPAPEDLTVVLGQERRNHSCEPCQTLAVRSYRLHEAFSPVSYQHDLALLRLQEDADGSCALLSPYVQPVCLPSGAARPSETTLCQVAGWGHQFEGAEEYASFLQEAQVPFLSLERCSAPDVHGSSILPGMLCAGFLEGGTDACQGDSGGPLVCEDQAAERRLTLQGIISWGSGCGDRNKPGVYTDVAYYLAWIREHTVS

Fatty acid synthase [5] = target: T4, Fatty acid synthase (Homo sapiens, UniProt P49327); test: inhibition of human FAS-TE enzyme activity – biochemical, kinetic fluorescence intensity, dose response (AID 624326); assay type: functional;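 further: rate of fluorescence rise from hydrolysis of a fluorogenic O-methyl fluorescein ester substrate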
T4 sequence (P49327 whole entry): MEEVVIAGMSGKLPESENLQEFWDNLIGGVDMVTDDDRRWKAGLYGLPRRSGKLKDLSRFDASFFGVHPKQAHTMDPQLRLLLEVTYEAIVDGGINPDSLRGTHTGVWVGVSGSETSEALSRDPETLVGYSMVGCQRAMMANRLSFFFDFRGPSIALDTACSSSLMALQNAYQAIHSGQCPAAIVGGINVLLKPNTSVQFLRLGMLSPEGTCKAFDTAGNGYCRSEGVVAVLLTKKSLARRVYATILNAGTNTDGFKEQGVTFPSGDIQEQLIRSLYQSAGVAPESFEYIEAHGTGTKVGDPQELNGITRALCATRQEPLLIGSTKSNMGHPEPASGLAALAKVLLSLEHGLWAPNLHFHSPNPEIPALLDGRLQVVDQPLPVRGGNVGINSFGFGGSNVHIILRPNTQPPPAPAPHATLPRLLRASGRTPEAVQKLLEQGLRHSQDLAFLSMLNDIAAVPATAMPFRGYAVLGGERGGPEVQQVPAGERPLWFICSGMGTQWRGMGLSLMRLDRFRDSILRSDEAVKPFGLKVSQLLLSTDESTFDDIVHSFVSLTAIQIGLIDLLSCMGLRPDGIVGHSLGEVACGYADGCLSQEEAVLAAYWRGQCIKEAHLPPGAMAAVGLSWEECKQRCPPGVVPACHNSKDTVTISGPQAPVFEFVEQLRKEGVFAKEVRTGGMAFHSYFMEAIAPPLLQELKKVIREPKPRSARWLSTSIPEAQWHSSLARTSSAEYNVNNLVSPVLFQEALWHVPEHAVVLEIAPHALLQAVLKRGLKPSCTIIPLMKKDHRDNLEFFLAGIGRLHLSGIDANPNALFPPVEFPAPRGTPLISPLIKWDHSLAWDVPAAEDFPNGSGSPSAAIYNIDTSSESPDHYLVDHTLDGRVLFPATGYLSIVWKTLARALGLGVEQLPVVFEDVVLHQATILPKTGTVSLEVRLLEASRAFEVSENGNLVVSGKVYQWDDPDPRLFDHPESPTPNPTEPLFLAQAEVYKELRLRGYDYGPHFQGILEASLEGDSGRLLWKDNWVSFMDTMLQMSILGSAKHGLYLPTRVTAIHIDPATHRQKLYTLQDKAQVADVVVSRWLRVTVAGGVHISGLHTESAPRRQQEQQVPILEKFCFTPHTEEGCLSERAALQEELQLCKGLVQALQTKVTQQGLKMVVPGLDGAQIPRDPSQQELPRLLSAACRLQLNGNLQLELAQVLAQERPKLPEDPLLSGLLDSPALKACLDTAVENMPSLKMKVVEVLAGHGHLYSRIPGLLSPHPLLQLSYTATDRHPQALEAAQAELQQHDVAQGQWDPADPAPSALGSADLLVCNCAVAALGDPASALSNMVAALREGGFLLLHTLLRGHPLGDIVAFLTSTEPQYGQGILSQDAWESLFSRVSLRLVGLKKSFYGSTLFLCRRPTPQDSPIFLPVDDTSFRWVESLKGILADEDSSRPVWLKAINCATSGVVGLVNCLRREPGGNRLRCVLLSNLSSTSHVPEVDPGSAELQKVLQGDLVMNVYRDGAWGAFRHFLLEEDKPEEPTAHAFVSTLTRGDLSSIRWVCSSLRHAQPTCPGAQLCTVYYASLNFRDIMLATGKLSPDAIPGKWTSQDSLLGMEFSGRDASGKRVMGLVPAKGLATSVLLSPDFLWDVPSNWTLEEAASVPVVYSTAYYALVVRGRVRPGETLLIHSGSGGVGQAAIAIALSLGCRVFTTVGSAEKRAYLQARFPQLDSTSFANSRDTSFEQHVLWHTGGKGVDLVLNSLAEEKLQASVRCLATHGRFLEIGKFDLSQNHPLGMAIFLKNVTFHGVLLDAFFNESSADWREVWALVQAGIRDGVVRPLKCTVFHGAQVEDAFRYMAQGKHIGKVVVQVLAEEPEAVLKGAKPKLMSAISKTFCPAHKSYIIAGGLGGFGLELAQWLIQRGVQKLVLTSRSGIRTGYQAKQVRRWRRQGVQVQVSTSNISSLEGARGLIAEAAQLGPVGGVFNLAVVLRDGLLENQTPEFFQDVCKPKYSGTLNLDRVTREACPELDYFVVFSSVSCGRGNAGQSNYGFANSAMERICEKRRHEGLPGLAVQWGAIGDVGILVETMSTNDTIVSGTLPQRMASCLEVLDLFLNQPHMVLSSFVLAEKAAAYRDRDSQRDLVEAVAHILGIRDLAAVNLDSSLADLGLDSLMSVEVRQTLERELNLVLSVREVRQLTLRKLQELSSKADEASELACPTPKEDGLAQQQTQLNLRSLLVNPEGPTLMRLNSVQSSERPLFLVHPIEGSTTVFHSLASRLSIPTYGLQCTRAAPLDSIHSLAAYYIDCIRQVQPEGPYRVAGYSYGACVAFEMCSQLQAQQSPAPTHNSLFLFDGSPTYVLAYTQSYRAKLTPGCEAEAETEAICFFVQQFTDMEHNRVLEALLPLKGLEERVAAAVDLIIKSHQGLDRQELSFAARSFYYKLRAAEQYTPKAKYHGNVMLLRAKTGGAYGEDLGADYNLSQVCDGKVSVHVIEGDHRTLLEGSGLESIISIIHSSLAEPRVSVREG

Fatty acid synthase [6] = target: T4, Fatty acid synthase; test: inhibition of human FAS-TE enzyme activity – biochemical, endpoint fluorescence intensity, uHTS hits, dose response (AID 624327); assay type: functional;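 further: fluorescence from hydrolysis of an O-methyl fluorescein acyl ester substrate by the enzyme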
[7] = target: T5, DNA repair protein RAD52 homolog (Homo sapiens, UniProt P43351); assay type: functional, biochemical
T5 sequence (P43351 whole entry): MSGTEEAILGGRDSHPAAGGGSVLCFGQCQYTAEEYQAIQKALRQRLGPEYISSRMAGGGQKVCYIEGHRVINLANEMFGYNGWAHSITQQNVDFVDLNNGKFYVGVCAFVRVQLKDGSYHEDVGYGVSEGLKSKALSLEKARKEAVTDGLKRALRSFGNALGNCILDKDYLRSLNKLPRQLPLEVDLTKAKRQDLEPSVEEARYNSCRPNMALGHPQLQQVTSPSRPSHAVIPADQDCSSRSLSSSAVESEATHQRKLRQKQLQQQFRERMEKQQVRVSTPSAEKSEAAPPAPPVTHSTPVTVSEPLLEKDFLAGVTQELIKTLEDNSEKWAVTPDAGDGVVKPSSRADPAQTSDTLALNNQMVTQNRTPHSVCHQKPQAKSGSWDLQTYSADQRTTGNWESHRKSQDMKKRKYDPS

[8] = target: Potassium channel subfamily K member 3 (Rattus norvegicus, UniProt O54912); test: SAR analysis for the identification of selective inhibitors of the two-pore domain potassium channel TASK1(KCNK3):Automated Electrophysiology.; assay type: functional
Potassium channel subfamily K member 3, sequence (O54912 whole entry, the tested form may be a part): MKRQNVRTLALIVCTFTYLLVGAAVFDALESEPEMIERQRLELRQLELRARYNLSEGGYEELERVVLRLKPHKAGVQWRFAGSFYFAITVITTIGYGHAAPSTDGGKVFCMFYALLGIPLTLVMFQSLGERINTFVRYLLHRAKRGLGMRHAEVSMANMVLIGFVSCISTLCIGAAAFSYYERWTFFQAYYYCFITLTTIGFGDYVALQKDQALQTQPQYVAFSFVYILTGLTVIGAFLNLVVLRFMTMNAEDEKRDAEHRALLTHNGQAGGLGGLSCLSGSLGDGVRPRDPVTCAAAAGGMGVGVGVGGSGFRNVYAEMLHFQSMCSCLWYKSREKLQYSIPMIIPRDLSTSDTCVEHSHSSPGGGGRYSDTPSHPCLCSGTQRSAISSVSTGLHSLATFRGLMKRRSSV

[9] = target: T6, Potassium channel subfamily K member 9 (Homo sapiens, UniProt Q9NPC2); test: TASK3 channel blockers, electrophysiology – cell-based, automated electrophysiology, selectivity assay for TASK1 (KCNK3) inhibitor project, SAR follow-up (AID 652210); assay type: functional
T6 sequence (Q9NPC2 whole entry): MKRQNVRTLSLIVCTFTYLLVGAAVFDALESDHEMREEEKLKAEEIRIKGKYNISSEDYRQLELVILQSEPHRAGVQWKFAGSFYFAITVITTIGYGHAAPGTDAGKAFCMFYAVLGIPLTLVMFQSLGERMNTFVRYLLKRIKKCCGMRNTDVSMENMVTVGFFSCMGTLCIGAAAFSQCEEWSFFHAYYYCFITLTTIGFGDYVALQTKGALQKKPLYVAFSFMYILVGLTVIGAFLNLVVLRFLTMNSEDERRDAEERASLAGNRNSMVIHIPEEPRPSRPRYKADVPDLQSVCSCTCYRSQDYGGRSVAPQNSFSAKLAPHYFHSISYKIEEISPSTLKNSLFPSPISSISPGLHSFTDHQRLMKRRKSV

[10] = target: T6, Potassium channel subfamily K member 9; test: KCNK9 flux blockade, concentration-response – cell-based, FluxOR thallium flux, selectivity assay for TASK1 inhibitor project, SAR follow-up (AID 652211); assay type: functional;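 further: potency is for inhibitors of the channel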
[11] = Potency on glucagon-like peptide 1 release, dose-response in NCI-H716 cell line, half maximal inhibitory concentration (AID 1117344); assay type: functional, cell-based
[12] = glucagon-like peptide-1 release potency in STC-1, concentration-response, half-maximal inhibitory concentration in the STC-1 line (AID 1117345); assay type: functional, cell-based
[13] = rise of 2N DNA cells, HeLa – IC50, dose response (AID 1117349); assay type: functional, cell-based
[14] = rise of 4N DNA cells, HeLa – IC50, dose response (AID 1117351); assay type: functional, cell-based
P388 = test: cells; assay type: functional; details: Mus musculus
P388/ADR = test: cells; assay type: functional; details: Mus musculus
SN12K1 = test: cells; assay type: functional; details: Homo sapiens

T1 sequence (Q92731 whole entry): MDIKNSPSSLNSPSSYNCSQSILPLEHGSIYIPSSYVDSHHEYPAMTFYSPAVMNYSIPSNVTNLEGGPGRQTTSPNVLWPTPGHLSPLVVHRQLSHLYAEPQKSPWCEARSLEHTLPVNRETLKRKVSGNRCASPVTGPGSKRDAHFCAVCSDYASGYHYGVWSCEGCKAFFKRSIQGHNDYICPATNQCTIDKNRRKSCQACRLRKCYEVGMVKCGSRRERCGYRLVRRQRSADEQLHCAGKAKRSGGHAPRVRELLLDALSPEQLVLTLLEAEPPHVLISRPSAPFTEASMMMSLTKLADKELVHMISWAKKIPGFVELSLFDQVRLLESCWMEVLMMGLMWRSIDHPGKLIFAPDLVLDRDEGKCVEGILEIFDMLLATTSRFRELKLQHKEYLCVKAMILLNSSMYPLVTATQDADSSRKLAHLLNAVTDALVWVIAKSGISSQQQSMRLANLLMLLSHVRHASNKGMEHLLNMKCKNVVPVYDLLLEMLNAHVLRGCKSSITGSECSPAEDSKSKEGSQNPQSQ

Structure (SMILES): Cc1nn(-c2ccccc2)c(C)c1NC(=O)Cc1cccs1
- IC50 (Estrogen receptor beta [1]): 61.1 nM (not active)
- IC50 (Estrogen receptor beta [2]): 27.1 µM (active)

Structure (SMILES): NC(=O)c1ccc(N/C=C2/C(=O)NC(=O)N(Cc3ccco3)C2=O)cc1
- IC50 [3]: 3.45 µM (active)
- IC50 [4]: 31.3 µM (inactive)

Structure (SMILES): Cc1ccc(S(=O)(=O)ON2C(=O)c3ccccc3C2=O)c(C)c1
- IC50 (Prothrombin): 856 nM (active)
- IC50 (Genome polyprotein): 96.3 µM (active)
- IC50 (Coagulation factor XII): 8.48 µM (active)
- IC50 (Fatty acid synthase [5]): 1.39 µM (active)
- IC50 (Fatty acid synthase [6]): 1.35 µM (active)

Structure (SMILES): Cc1cccc(NC(=O)C2CCN(S(=O)(=O)c3c(C)nn(C)c3C)CC2)n1
- IC50 (Estrogen receptor beta [2]): > 50 µM (not active)

Structure (SMILES): CN(C)CCNC(=O)c1cccc2[nH]c(-c3ccncc3)nc12
- IC50 [4]: 10.6 µM (inactive)
- AC50 [7]: 10 µM (active)

Structure (SMILES): COc1cccc(C(=O)Nc2cccc(NC(=O)c3ccccc3)c2)c1
- IC50 [8]: 610 nM (active)
- IC50 [9]: 420 nM (active)
- IC50 [10]: 25.9 µM (active)

Structure (SMILES): CC1=C(C(=O)OC(C)C)C(c2cccc([N+](=O)[O-])c2)C(C(=O)OC2CN(C(c3ccccc3)c3ccccc3)C2)=C(N)N1 (configuration not stated) [AZELNIDIPINE]
- IC50 [11]: 12.8 µM (inactive)
- IC50 [12]: 1.23 µM (active)

Structure (SMILES): O=C(CCBr)N1CCN(C(=O)CCBr)CC1 [PIPOBROMAN]
- IC50 [13]: > 10 µM (inactive)
- IC50 [14]: > 10 µM (inactive)
- GI50 (P388): 14.1 µM (inactive)
- GI50 (P388/ADR): 13.2 µM (inactive)
- GI50 (SN12K1): 65.3 µM (inactive)
